According to US20050002862A1, “Biological markers for evaluating therapeutic treatment of inflammatory and autoimmune disorders” (priority 2000, published 2005):

Experiments:
Assay type in all cases: in vivo, human
[1] = system: HLA class II expression on monocytes; assay: HLA class II expression on monocytes in blood, cytometry, before/after oral prednisone; details: after three days of oral prednisone, all disease groups, adjusted p-value < 0.001
Description: The inventive biomarkers were identified in a study of the effects of oral prednisone on biological markers of allergy and asthma. Eighty subjects were enrolled in the study, 23 with atopic asthma, 28 with allergy alone, 26 with neither allergy nor asthma (healthy controls), and 3 with asthma alone. Allergy was defined by a positive skin prick test. Mild asthma was defined as positive methacholine challenge within the last three months, as well as one or more of documented diagnosis of asthma, history of cough, recurrent wheeze, recurrent difficult breathing, and recurrent chest tightening. Approximately half of the subjects from each disease group were given oral prednisone for three days, while the other half was given a placebo. Blood samples were taken before treatment and after three days of treatment with oral prednisone or placebo. Cellular markers in the blood samples were evaluated using the SurroScan™ microvolume laser scanning cytometry system for multiparameter cellular analysis. Monoclonal antigen-specific antibodies were purchased from commercial vendors and coupled to one of three different fluorophores, Cy5, Cy5.5, and Cy7-APC. Assays were performed to monitor cell counts of more than 200 different cell populations, including granulocytes, eosinophils, monocytes, CD4 and CD8 T cells, B cells, and NK cells. In addition, the relative levels of 49 different cell surface antigens (activation antigens, co-stimulatory molecules, adhesion molecules, antigen receptors, cytokine receptors) on specific cell populations were measured. The prepared antibody-dye reagents were combined into cocktails and incubated with aliquots of whole or red blood cell-lysed blood in the dark at room temperature for 20 minutes. The samples were then diluted with an appropriate buffer and loaded into capillary arrays for analysis. Each fluorophore was measured in a separate detection channel, and images were converted to flow cytometry standard format and analyzed with FlowJo™ cytometry analysis software. Template gates were used to enumerate the cell populations of interest in all of the assays. Following data acquisition, variables were analyzed to assess differences in subject groups before drug administration, as well as changes following drug administration. A total of 713 variables, including cell populations, cell surface antigen expression, and soluble factors, were analyzed. […] Univariate tests were performed on individual variables, and the step-down Bonferroni p-value adjustment method of Holm was employed to control for multiple comparisons. The Bonferroni correction, which reduces the number of false positives, is described above. Univariate tests were performed on the data before and after drug administration for both the drug and placebo groups. In order to determine whether any non-normality of the data affected the tests, both non-parametric tests (sign rank or sign) and parametric paired t-tests were performed. Statistical tests for normality, skewness, and kurtosis were performed per variable to assess normality. For sufficiently normally distributed data, the paired t-test result was used; otherwise, the nonparametric result was used. All p-values were adjusted using the step-down Bonferroni method, maintaining the overall study false positive rate below 5%. […] When the analysis was performed on the separate disease classes individually, no significant differences were found before and after drug administration. Additionally, a linear-mixed model was used to evaluate fixed and random effects for the prednisone and placebo groups. This model notes the difference in response in the drug and placebo to indicate whether the observed trends can be attributed to the drug alone. The model, executed with PROC MIXED in SAS™, used the three fixed effects of drug, time, and (drug×time) to fit the data.

[2] = system: CD89 expression on granulocytes; assay: CD89 expression on granulocytes in blood, microvolume laser scanning cytometry, before/after oral prednisone; details: after three days of oral prednisone, adjusted p-value < 0.001
Description: (§1) The inventive biomarkers were identified in a study of the effects of oral prednisone on biological markers of allergy and asthma. Eighty subjects were enrolled in the study, 23 with atopic asthma, 28 with allergy alone, 26 with neither allergy nor asthma (healthy controls), and 3 with asthma alone. Allergy was defined by a positive skin prick test. Mild asthma was defined as positive methacholine challenge within the last three months, as well as one or more of documented diagnosis of asthma, history of cough, recurrent wheeze, recurrent difficult breathing, and recurrent chest tightening. […] Cellular markers in the blood samples were evaluated using the SurroScan™ microvolume laser scanning cytometry system for multiparameter cellular analysis. […] In addition, the relative levels of 49 different cell surface antigens (activation antigens, co-stimulatory molecules, adhesion molecules, antigen receptors, cytokine receptors) on specific cell populations were measured. […] Each fluorophore was measured in a separate detection channel, and images were converted to flow cytometry standard format and analyzed with FlowJo™ cytometry analysis software. […] Following data acquisition, variables were analyzed to assess differences in subject groups before drug administration, as well as changes following drug administration. […]

[3] = system: HLA class II expression on B cells; assay: HLA class II expression on B cells in blood, cytometry, before/after oral prednisone; details: after three days of oral prednisone, all disease groups, adjusted p-value < 0.001
Description: The inventive biomarkers were identified in a study of the effects of oral prednisone on biological markers of allergy and asthma. Eighty subjects were enrolled in the study, 23 with atopic asthma, 28 with allergy alone, 26 with neither allergy nor asthma (healthy controls), and 3 with asthma alone. Allergy was defined by a positive skin prick test. Mild asthma was defined as positive methacholine challenge within the last three months, as well as one or more of documented diagnosis of asthma, history of cough, recurrent wheeze, recurrent difficult breathing, and recurrent chest tightening. Approximately half of the subjects from each disease group were given oral prednisone for three days, while the other half was given a placebo. Blood samples were taken before treatment and after three days of treatment with oral prednisone or placebo. Cellular markers in the blood samples were evaluated using the SurroScan™ microvolume laser scanning cytometry system for multiparameter cellular analysis. Monoclonal antigen-specific antibodies were purchased from commercial vendors and coupled to one of three different fluorophores, Cy5, Cy5.5, and Cy7-APC. Assays were performed to monitor cell counts of more than 200 different cell populations, including granulocytes, eosinophils, monocytes, CD4 and CD8 T cells, B cells, and NK cells. In addition, the relative levels of 49 different cell surface antigens (activation antigens, co-stimulatory molecules, adhesion molecules, antigen receptors, cytokine receptors) on specific cell populations were measured. […] Each fluorophore was measured in a separate detection channel, and images were converted to flow cytometry standard format and analyzed with FlowJo™ cytometry analysis software. […] Following data acquisition, variables were analyzed to assess differences in subject groups before drug administration, as well as changes following drug administration. A total of 713 variables, including cell populations, cell surface antigen expression, and soluble factors, were analyzed. […]

monocytes = assay: Monocyte count in blood, cytometry, before/after oral prednisone; details: after three days of oral prednisone; all disease groups; mean pre drug 369 (121); adjusted p-value < 0.001
Description: as §1

SAA = SAA concentration, sandwich ELISA, before/after oral prednisone; details: after three days of oral prednisone; all disease groups; mean pre drug 2.73 (3.3); adjusted p-value < 0.001
Description: (§2) The inventive biomarkers were identified in a study of the effects of oral prednisone on biological markers of allergy and asthma. Eighty subjects were enrolled in the study, 23 with atopic asthma, 28 with allergy alone, 26 with neither allergy nor asthma (healthy controls), and 3 with asthma alone. Allergy was defined by a positive skin prick test. Mild asthma was defined as positive methacholine challenge within the last three months, as well as one or more of documented diagnosis of asthma, history of cough, recurrent wheeze, recurrent difficult breathing, and recurrent chest tightening. Approximately half of the subjects from each disease group were given oral prednisone for three days, while the other half was given a placebo. Blood samples were taken before treatment and after three days of treatment with oral prednisone or placebo. […] Finally, the chemiluminescent alkaline phosphatase substrate was added and incubated before reading. Standard curves and analyte amounts were determined using curve fitting techniques. Following data acquisition, variables were analyzed to assess differences in subject groups before drug administration, as well as changes following drug administration. A total of 713 variables, including cell populations, cell surface antigen expression, and soluble factors, were analyzed. […]

[4] = system: CD38 expression on CD4 T cells; assay: CD38 expression on CD4 T cells in blood, cytometry, before/after oral prednisone; details: after three days of oral prednisone; all disease groups; mean pre drug 32.9 (9.8); adjusted p-value < 0.001
Description: as §1

[5] = system: CD62L expression on B cells; assay: CD62L expression on B cells in blood, cytometry, before/after oral prednisone; details: after three days of oral prednisone; all disease groups; mean pre drug 2998 (505); adjusted p-value < 0.001
Description: as §1

MMP-3 = MMP-3 concentration, sandwich ELISA, before/after oral prednisone; details: after three days of oral prednisone; all disease groups; mean pre drug 37 (29); adjusted p-value < 0.001
Description: as §2

SMILES: C[C@]12C=CC(=O)C=C1CC[C@@H]1[C@@H]2C(=O)C[C@@]2(C)[C@H]1CC[C@]2(O)C(=O)CO [prednisone]
- HLADQ+ monocyte population, Mean Post Drug (SD) ([1]; mean pre drug 8.7 (4.39)): 3.6 (2.49) % of total monocytes
- HLADR+ monocyte population, Mean Post Drug (SD) ([1]; mean pre drug 84.4 (14.0)): 75.4 (16.9) % of total monocytes
- HLAPAN+ monocyte population, Mean Post Drug (SD) ([1]; mean pre drug 91.8 (8.4)): 83.0 (15.1) % of total monocytes
- HLA-DQ on monocytes (expression intensity), Mean Post Drug (SD) ([1]; mean pre drug 165 (103)): 69 (52) arbitrary units
- HLA-DR on monocytes (expression intensity), Mean Post Drug (SD) ([1]; mean pre drug 2966 (1068)): 1970 (729) arbitrary units
- HLA-PAN on monocytes (expression intensity), Mean Post Drug (SD) ([1]; mean pre drug 4961 (1738)): 3196 (1046) arbitrary units
- CD89+ granulocyte population, Mean Post Drug (SD) ([2]; all disease groups (atopic, atopic asthmatic, healthy), mean pre drug 85 (20)): 96 (9) % of total granulocytes
- CD89 on granulocytes (expression intensity), Mean Post Drug (SD) ([2]; all disease groups, mean pre drug 2047 (1549)): 2527 (1691) arbitrary units
- HLA-DQ on B cells (expression intensity), Mean Post Drug (SD) ([3]; mean pre drug 3123 (1090)): 1680 (817) arbitrary units
- HLA-DR on B cells (expression intensity), Mean Post Drug (SD) ([3]; mean pre drug 8108 (2711)): 4486 (2025) arbitrary units
- HLA-PAN on B cells (expression intensity), Mean Post Drug (SD) ([3]; mean pre drug 11684 (3190)): 6550 (3123) arbitrary units
- Monocytes (count), Mean Post Drug (SD) (monocytes): 478 (160) cells/μl
- SAA concentration, Mean Post Drug (SD) (SAA): 6.71 (14.5) μg/ml
- CD38+ CD4 T cells, Mean Post Drug (SD) [4]: 29.3 (9.1) % of all CD4 T cells
- CD62L on B cells (expression intensity), Mean Post Drug (SD) [5]: 2479 (478) arbitrary units
- MMP-3 concentration, Mean Post Drug (SD) (MMP-3): 188 (140) ng/ml
